Experimental data reported in ChEMBL document CHEMBL1201862, “PubChem BioAssay data set” (2004).
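1) Cells in 96-well plates. 2) Compound, 48 h, 5 concentrations. 3) Linear interpolation between surrounding doses. 4) Unreached endpoint = highest concentration. Here, GI50 denotes the concentration required for 50% inhibition of growth.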 The source made the active and inactive calls. Rule as the data show it: active = GI50 up to about 1.1 µM and inactive = higher.

Key:
Test in all cases: DTP human tumour cell line panel, 48 h
[1] = test system: NCI-H522
[2] = test system: OVCAR-8
[3] = test system: NCI/ADR-RES
[4] = test system: HCT-116
[5] = test system: IGROV-1
[6] = test system: OVCAR-5
[7] = test system: 786-0
[8] = test system: M14
[9] = test system: A549
[10] = test system: CCRF-CEM
[11] = test system: SN12C
[12] = test system: MCF7
[13] = test system: UACC-257
[14] = test system: COLO 205
[15] = test system: LOX IMVI
[16] = test system: T47D
[17] = test system: SK-MEL-2
[18] = test system: NCI-H23
[19] = test system: SK-MEL-28
[20] = test system: SK-OV-3
[21] = test system: DU-145
[22] = test system: SF-268
[23] = test system: CAKI-1
[24] = test system: HL-60
[25] = test system: HCT-15
[26] = test system: OVCAR-3
[27] = test system: SNB-75
[28] = test system: UACC-62
[29] = test system: PC-3
[30] = test system: MDA-MB-435
[31] = test system: NCI-H226
[32] = test system: MDA-MB-231
[33] = test system: RXF 393
[34] = test system: HCC 2998
[35] = test system: U-251
[36] = test system: SW-620
[37] = test system: MDA-N
[38] = test system: SR
[39] = test system: SK-MEL-5
[40] = test system: Malme-3M
[41] = test system: NCI-H460
[42] = test system: BT-549
[43] = test system: A498
[44] = test system: SF-539
[45] = test system: OVCAR-4
[46] = test system: MOLT-4
[47] = test system: UO-31
[48] = test system: SNB-19
[49] = test system: KM12
[50] = test system: RPMI-8226
[51] = test system: TK-10
[52] = test system: EKVX
[53] = test system: K562
[54] = test system: HT-29
[55] = test system: Hs-578T
[56] = test system: HOP-62
[57] = test system: HOP-92
[58] = test system: ACHN
[59] = test system: SF-295

CSc1[nH]nc(N)c1C(=O)Nc1ccccc1
GI50 [1]: 52.4 µM (inactive) | GI50 [2]: > 100 µM (inactive) | GI50 [3]: > 100 µM (inactive) | GI50 [4]: > 100 µM (inactive) | GI50 [5]: > 100 µM (inactive) | GI50 [6]: > 100 µM (inactive) | GI50 [7]: > 100 µM (inactive) | GI50 [8]: > 100 µM (inactive) | GI50 [9]: > 100 µM (inactive) | GI50 [10]: > 100 µM (inactive) | GI50 [11]: > 100 µM (inactive) | GI50 [12]: > 100 µM (inactive) | GI50 [13]: > 100 µM (inactive) | GI50 [14]: > 100 µM (inactive) | GI50 [15]: > 100 µM (inactive) | GI50 [16]: > 100 µM (inactive) | GI50 [17]: > 100 µM (inactive) | GI50 [18]: > 100 µM (inactive) | GI50 [19]: > 100 µM (inactive) | GI50 [20]: > 100 µM (inactive) | GI50 [21]: > 100 µM (inactive) | GI50 [22]: > 100 µM (inactive) | GI50 [23]: > 100 µM (inactive) | GI50 [24]: > 100 µM (inactive) | GI50 [25]: > 100 µM | GI50 [26]: > 100 µM (inactive) | GI50 [27]: > 100 µM (inactive) | GI50 [28]: > 100 µM (inactive) | GI50 [29]: > 100 µM (inactive) | GI50 [30]: > 100 µM (inactive) | GI50 [31]: > 100 µM (inactive) | GI50 [32]: > 100 µM (inactive) | GI50 [33]: > 100 µM (inactive) | GI50 [34]: > 100 µM (inactive) | GI50 [35]: > 100 µM (inactive) | GI50 [36]: > 100 µM (inactive) | GI50 [37]: > 100 µM (inactive) | GI50 [38]: > 100 µM (inactive) | GI50 [39]: > 100 µM (inactive) | GI50 [40]: > 100 µM (inactive) | GI50 [41]: > 100 µM (inactive) | GI50 [42]: > 100 µM (inactive) | GI50 [43]: > 100 µM (inactive) | GI50 [44]: > 100 µM (inactive) | GI50 [45]: > 100 µM (inactive) | GI50 [46]: > 100 µM (inactive) | GI50 [47]: > 100 µM (inactive) | GI50 [48]: > 100 µM (inactive) | GI50 [49]: > 100 µM (inactive) | GI50 [50]: > 100 µM (inactive) | GI50 [51]: > 100 µM (inactive) | GI50 [52]: > 100 µM (inactive) | GI50 [53]: > 100 µM (inactive) | GI50 [54]: > 100 µM (inactive) | GI50 [55]: > 100 µM (inactive)

O=C(O)CN1CCNCCN(CC(=O)O)CCN(CC(=O)O)CCNCC1
GI50 [1]: 18.2 µM (inactive) | GI50 [2]: 96.2 µM (inactive) | GI50 [3]: 23.3 µM (inactive) | GI50 [4]: 35.2 µM (inactive) | GI50 [5]: > 100 µM (inactive) | GI50 [6]: 97.7 µM (inactive) | GI50 [7]: 93.3 µM (inactive) | GI50 [8]: > 100 µM (inactive) | GI50 [9]: > 100 µM (inactive) | GI50 [10]: > 100 µM (inactive) | GI50 [11]: > 100 µM (inactive) | GI50 [12]: 69.8 µM (inactive) | GI50 [13]: > 100 µM (inactive) | GI50 [14]: 64.1 µM (inactive) | GI50 [15]: 91.2 µM (inactive) | GI50 [16]: > 100 µM (inactive) | GI50 [17]: > 100 µM (inactive) | GI50 [19]: > 100 µM (inactive) | GI50 [20]: > 100 µM (inactive) | GI50 [21]: > 100 µM (inactive) | GI50 [23]: > 100 µM (inactive) | GI50 [24]: 25.9 µM (inactive) | GI50 [25]: 61.9 µM | GI50 [26]: 76 µM (inactive) | GI50 [27]: 63.4 µM (inactive) | GI50 [56]: > 100 µM (inactive) | GI50 [28]: 84.7 µM (inactive) | GI50 [29]: > 100 µM (inactive) | GI50 [30]: > 100 µM (inactive) | GI50 [31]: > 100 µM (inactive) | GI50 [57]: > 100 µM (inactive) | GI50 [32]: > 100 µM (inactive) | GI50 [35]: > 100 µM (inactive) | GI50 [58]: > 100 µM (inactive) | GI50 [36]: 41.5 µM (inactive) | GI50 [37]: > 100 µM (inactive) | GI50 [38]: 61.1 µM (inactive) | GI50 [39]: > 100 µM (inactive) | GI50 [59]: > 100 µM (inactive) | GI50 [40]: > 100 µM (inactive) | GI50 [41]: 68.7 µM (inactive) | GI50 [42]: > 100 µM (inactive) | GI50 [43]: 71.9 µM (inactive) | GI50 [44]: 63.7 µM (inactive) | GI50 [45]: > 100 µM (inactive) | GI50 [46]: 83.6 µM (inactive) | GI50 [47]: > 100 µM (inactive) | GI50 [48]: > 100 µM (inactive) | GI50 [49]: > 100 µM (inactive) | GI50 [50]: > 100 µM (inactive) | GI50 [51]: > 100 µM (inactive) | GI50 [52]: > 100 µM (inactive) | GI50 [53]: 85.3 µM (inactive) | GI50 [54]: 26.7 µM (inactive) | GI50 [55]: > 100 µM (inactive)

O=C1Nc2c(Cl)cccc2/C1=N/Nc1ccccc1[N+](=O)[O-]
GI50 [1]: 4.45 µM (inactive) | GI50 [2]: 12.4 µM (inactive) | GI50 [3]: 11.5 µM (inactive) | GI50 [4]: 29.7 µM (inactive) | GI50 [5]: 1.9 µM (inactive) | GI50 [6]: 50.7 µM (inactive) | GI50 [7]: 10.1 µM (inactive) | GI50 [8]: 21.7 µM (inactive) | GI50 [9]: 21.8 µM (inactive) | GI50 [10]: 46 µM (inactive) | GI50 [11]: 28.9 µM (inactive) | GI50 [12]: 14.7 µM (inactive) | GI50 [13]: 22.4 µM (inactive) | GI50 [14]: 81.3 µM (inactive) | GI50 [15]: 11.8 µM (inactive) | GI50 [16]: 22.2 µM (inactive) | GI50 [17]: 70.6 µM (inactive) | GI50 [18]: 13.5 µM (inactive) | GI50 [19]: 35.1 µM (inactive) | GI50 [20]: 18.8 µM (inactive) | GI50 [21]: 16.4 µM (inactive) | GI50 [22]: 11.4 µM (inactive) | GI50 [23]: 11.7 µM (inactive) | GI50 [24]: 70.1 µM (inactive) | GI50 [25]: 29.9 µM | GI50 [26]: 44.4 µM (inactive) | GI50 [27]: 14 µM (inactive) | GI50 [56]: 9.27 µM (inactive) | GI50 [28]: 17.5 µM (inactive) | GI50 [29]: 31.9 µM (inactive) | GI50 [30]: 28.2 µM (inactive) | GI50 [31]: 36.1 µM (inactive) | GI50 [32]: 4.97 µM (inactive) | GI50 [33]: 31.9 µM (inactive) | GI50 [34]: 32.7 µM (inactive) | GI50 [35]: 14.2 µM (inactive) | GI50 [58]: 11.9 µM (inactive) | GI50 [36]: 32.7 µM (inactive) | GI50 [37]: 25.6 µM (inactive) | GI50 [38]: 4.68 µM (inactive) | GI50 [39]: 12.2 µM (inactive) | GI50 [59]: 9.02 µM (inactive) | GI50 [40]: 3.58 µM (inactive) | GI50 [41]: 17.3 µM (inactive) | GI50 [42]: 28 µM (inactive) | GI50 [43]: 28.2 µM (inactive) | GI50 [44]: 16.7 µM (inactive) | GI50 [45]: 8.81 µM (inactive) | GI50 [46]: 31.3 µM (inactive) | GI50 [47]: 22.1 µM (inactive) | GI50 [48]: 44.3 µM (inactive) | GI50 [49]: 8.89 µM (inactive) | GI50 [50]: 25 µM (inactive) | GI50 [51]: 11.5 µM (inactive) | GI50 [52]: 3.51 µM (inactive) | GI50 [53]: 36.9 µM (inactive) | GI50 [54]: 12.5 µM (inactive) | GI50 [55]: 7.87 µM (inactive)
